# Reference: ChEMBL document CHEMBL5365454, “Strong Binding of C-Glycosylic1,2-Thiodisaccharides to Galectin-3─Enthalpy-Driven Affinity Enhancement by Water-Mediated Hydrogen Bonds” (J Med Chem, 2023)
# How the values were obtained:
# [1] = molecular target: Galectin-3 (Homo sapiens) (UniProt P17931); assay: Binding affinity to recombinant human galectin-3 carbohydrate recognition domain expressed in Escherichia coli BL21 (DE3) cells assessed as change in enthalpy by Nano-ITC analysis
# [2] = molecular target: Galectin-3 (Homo sapiens) (UniProt P17931); assay: Binding affinity to recombinant human galectin-3 carbohydrate recognition domain expressed in Escherichia coli BL21 (DE3) cells assessed as change in entropy by Nano-ITC analysis
# [3] = molecular target: Galectin-3 (Homo sapiens) (UniProt P17931); assay: Binding affinity to recombinant human galectin-3 carbohydrate recognition domain expressed in Escherichia coli BL21 (DE3) cells assessed as gibbs free energy change by Nano-ITC analysis
# Galectin-3 (Homo sapiens), sequence (P17931 whole entry, the tested form may be a part): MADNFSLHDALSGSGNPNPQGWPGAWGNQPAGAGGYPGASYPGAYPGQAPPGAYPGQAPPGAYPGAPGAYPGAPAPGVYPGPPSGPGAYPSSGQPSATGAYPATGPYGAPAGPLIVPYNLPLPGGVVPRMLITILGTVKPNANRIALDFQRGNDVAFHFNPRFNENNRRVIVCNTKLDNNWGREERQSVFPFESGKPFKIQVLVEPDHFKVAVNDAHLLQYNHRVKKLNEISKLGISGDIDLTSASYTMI
Compound,deltaH [1],-TdeltaS [2],deltaG [3]
COC(=O)[C@@H]1O[C@H](CO)[C@H](O)[C@H](O)[C@@H]1S[C@@H]1O[C@H](CO)[C@H](O)[C@H](O)[C@H]1O,-32.3 kJ/mol,5.2 kJ/mol,
NC(=O)[C@@H]1O[C@H](CO)[C@H](O)[C@H](O)[C@@H]1S[C@@H]1O[C@H](CO)[C@H](O)[C@H](O)[C@H]1O,,0.2 kJ/mol,
OC[C@H]1O[C@@H](S[C@@H]2CO[C@H](CO)[C@H](O)[C@@H]2O)[C@H](O)[C@@H](O)[C@H]1O,-27.1 kJ/mol,0.4 kJ/mol,
NC(=O)[C@@H]1O[C@H](CO)[C@@H](O)[C@H](O)[C@@H]1S[C@@H]1O[C@H](CO)[C@H](O)[C@H](O)[C@H]1O,-32.4 kJ/mol,4.8 kJ/mol,
OC[C@H]1O[C@@H](S[C@@H]2O[C@H](CO)[C@H](O)[C@H](O)[C@H]2O)[C@H](O)[C@@H](O)[C@H]1O,-19.8 kJ/mol,-5.06 kJ/mol,
"LACTOSE, ANHYDROUS",-22.9 kJ/mol,-2.03 kJ/mol,-24.9 kJ/mol
